Where two headings read alike, the source gives them in different places.
What was measured:
[1] = test system: 3β-hydroxysterol synthesis; assay: Test C: In Vivo Cholesterol Biosynthesis Inhibition Test; parameters: species or system rat (male Wistar Royal Hart); conditions: for ED50: Rattus norvegicus, read-out: ED50 (50% inhibition of 3β-hydroxysterol synthesis)
Procedure: Test C. In Vivo Cholesterol Biosynthesis Inhibition Test:
In vivo studies utilize male Wistar Royal Hart rats weighing 150±20 g. which have been kept for 7-10 days on an altered light cycle (6:30 A.M.-6.30 P.M. dark) housed two per cage and fed powdered Purina Rat Chow and water ad libitum. Three hours before the diurnal maximum of cholesterol synthesis at mid-dark, the rats are administered the test substances dissolved or as a suspension in 0.5% carboxymethylcellulose in a volume of 1 ml./100 g. body weight. Controls receive vehicle alone. One hour after receiving the test substance, the rats are injected intraperitoneally with about 25 μCi/100 g. body weight of sodium [1-^14 C]acetate 1-3 mCi/mmol. Two hours after mid-dark, blood samples are obtained under sodium hexobarbitol anesthesia, and the serum separated by centrifugation. (The dosage of the test substance is 0.01-200 mg./kg. body weight.)
The [^14 C]digitonides are then counted by liquid scintillation spectrometry. After correcting for efficiencies, the results are calculated in nCi (nanocuries) of sterol formed per 100 ml. of serum. Inhibition of sterol synthesis is calculated from the reduction in the nCi of sterols formed from test groups compared to controls.
The ED50 is the dose of the test substances observed or calculated to produce a 50% inhibition of 3β-hydroxysterol synthesis.

[2] = test system: sterol biosynthesis in Fu5AH rat hepatoma cell line; assay: Test B: In Vitro Cell Culture Cholesterol Biosynthesis Screen; type: cell-based; conditions: Fu5AH rat hepatoma cells, [14C]acetate, 3 hours, read-out: IC50 (50% inhibition of sterol biosynthesis)
Procedure: Test B. In Vitro Cell Culture Cholesterol Biosynthesis Screen:
The cell culture is prepared as follows: Stock monolayer cultures of the Fu5AH rat hepatoma cell line (originally obtained from G. Rothblat; see Rothblat, Lipids 9, 526-535 (1974) are routinely maintained in Eagle's Minimum Essential Medium (EMEM) supplemented with 10% fetal bovine serum (FBS) in 75 cm^2. tissue culture flasks. For these studies, when the cultures reach confluence, they are removed by mild enzymatic treatment with 0.25% trypsin in Hank's balanced salt solution (without calcium and magnesium). After centrifugation of the cell suspension and aspiration of the enzymatic solution, the cell pellet is resuspended in an appropriate volume of media for seeding into 60 mm. tissue culture dishes. The cultures are incubated at 37° C. in an atmosphere of high humidity and 5% carbon dioxide. When the cultures are confluent (approximately 5 days), they are ready for use. The culture media is aspirated from the dishes and replaced with 3 ml. of EMEM supplemented with 5 mg./ml. of delipidized serum protein (DLSP) prepared by the method of Rothblat et al., In Vitro 12, 554-447 (1976). […] Enhanced 3-hydroxy-3-methylglutaryl Coenzyme A reductase (HMG-CoA reductase) activity is measurable in the cells in response to the lack of exogenous sterol. Following approximately 24 hours incubation at 37° C. in the DLSP supplemented media, the assay is initiated by the addition of 3 μCi of [^14 C]acetate and the test substances solubilized in dimethylsulfoxide (DMSO) or distilled water. Solvent controls and compactin-treated controls are always prepared. Triplicate 60 mm. tissue culture dishes are run for each group. After 3 hours incubation at 37° C., the cultures are examined microscopically using an inverted phase contrast microscope. Notations are made of any morphological changes which may have occurred in the cultures. The media is aspirated and the cell layer is gently washed twice with 0.9% sodium chloride solution (saline). The cell layer is then harvested in 3 ml. of 0.9% saline by gentle scraping with a rubber policeman and transferred to a clean glass tube with Teflon lined cap. The dishes are rinsed with 3 ml. of 0.9% saline and rescraped, and the cells are combined with the first harvest. The tubes are centrifuged at 1500 r.p.m. for 10 minutes in an IEC PR-J centrifuge, and the supernatant is aspirated.
The cells are then extracted as follows: One ml. of 100% ethanol is added to the cell pellet followed by sonication for 10 seconds with a "LO" setting of 50 on a Bronwell Biosonik IV. One hundred μl. are taken for protein determination. One ml. of 15% potassium hydroxide (KOH) is added, and the samples are thoroughly vortexed. Saponification is accomplished by heating the ethanol-KOH treated samples at 60° C. for 60 minutes in a water bath. Following dilution of the samples with 2 ml. of distilled water, they are extracted three times with 7 ml. of petroleum ether. The petroleum ether extracts are then washed three times with 2 ml. of distilled water and finally taken to dryness under a stream of nitrogen.
The obtained samples are then analyzed by thin layer chromatography (TLC) as follows: Residues from the petroleum ether extraction are taken up in a small volume of hexane and spotted on silica gel 60 TLC plates (E. Merck). Development of the plates is carried out in a three phase solvent system consisting of 150 parts by volume hexane: 50 parts by volume diethyl ether: 5 parts by volume glacial acetic acid. Visualization is accomplished in an iodine vapor chamber. The plates are divided into five sections such that each section contains the molecules having the following approximate Rf value: section 1-0-0.4, section 12-0.4-0.55, section 3-0.55-0.7, section 4-0.7-0.9 and section 5-0.9-1.0. Section 2 contains the non-saponifiable sterols. The five sections of the TLC plates are scraped into scintillation vials. […]

HMG-CoA reductase = target: T1, HMG-CoA reductase (Rattus norvegicus, UniProt P51639); assay: Test A: In Vitro Microsomal Assay of HMG-CoA Reductase Inhibition; type: biochemical; conditions: rat liver microsomes, read-out: IC50 (50% inhibition of HMG-CoA reductase activity)
T1 construct: rat liver microsomal suspensions, freshly prepared from male Sprague-Dawley rats; from tissue; host or cells: liver microsomes of male Sprague-Dawley rats
T1 sequence (P51639 1-887): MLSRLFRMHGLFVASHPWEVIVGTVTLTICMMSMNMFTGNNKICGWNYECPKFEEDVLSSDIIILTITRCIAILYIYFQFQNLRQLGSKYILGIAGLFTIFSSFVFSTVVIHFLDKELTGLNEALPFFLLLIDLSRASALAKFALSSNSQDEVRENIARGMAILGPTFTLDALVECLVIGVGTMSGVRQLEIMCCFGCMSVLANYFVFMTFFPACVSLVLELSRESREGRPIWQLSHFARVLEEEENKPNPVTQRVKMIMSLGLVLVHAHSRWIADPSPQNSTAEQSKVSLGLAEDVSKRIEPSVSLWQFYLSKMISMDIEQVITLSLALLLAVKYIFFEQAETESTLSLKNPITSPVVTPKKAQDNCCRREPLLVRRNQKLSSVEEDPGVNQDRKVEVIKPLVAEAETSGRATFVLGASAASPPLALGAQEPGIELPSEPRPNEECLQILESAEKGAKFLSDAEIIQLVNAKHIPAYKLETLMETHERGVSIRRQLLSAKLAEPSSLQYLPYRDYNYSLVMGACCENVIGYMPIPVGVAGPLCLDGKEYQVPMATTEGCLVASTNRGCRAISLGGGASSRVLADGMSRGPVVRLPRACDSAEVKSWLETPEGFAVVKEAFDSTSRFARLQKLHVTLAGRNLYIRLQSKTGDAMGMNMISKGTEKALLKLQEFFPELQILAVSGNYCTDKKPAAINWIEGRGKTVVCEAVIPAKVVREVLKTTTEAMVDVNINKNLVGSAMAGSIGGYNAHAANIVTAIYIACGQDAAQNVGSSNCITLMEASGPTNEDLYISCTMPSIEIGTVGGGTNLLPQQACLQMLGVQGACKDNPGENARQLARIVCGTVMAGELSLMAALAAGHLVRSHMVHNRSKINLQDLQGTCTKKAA
Procedure: Test A. In Vitro Microsomal Assay of HMG-CoA Reductase Inhibition:
200 μl. aliquots (1.08-1.50 mg./ml.) of rat liver microsomal suspensions, freshly prepared from male Sprague-Dawley rats (150-225 g. body weight), in Buffer A with 10 mmol. dithiothreitol are incubated with 10 μl. of a solution of the test substance dissolved in dimethylacetamide and assayed for HMG-CoA reductase activity as described by Ackerman et al., J. Lipid Res. 18, 408-413 (1977), the concentration of the test substance in the assay system being 0.01-2,000 μmolar. In the assay the microsomes are the source of the HMG-CoA reductase enzyme which catalyzes the reduction of HMG-CoA to mevalonate. The assay employs a chloroform extraction to separate the product, [^14 C]-mevalonolactone, formed by the HMG-CoA reductase reaction from the substrate, [^14 C]HMG-CoA. [^3 H]mevalonolactone is added as an internal reference. Inhibition of HMG-CoA reductase is calculated from the decrease in specific activity [^14 C/^3 H]mevalonate) of test groups compared to controls.
IC50 is the concentration of the test substance in the assay system observed or calculated to produce a 50% inhibition of HMG-CoA reductase activity (Test A) or sterol biosynthesis (Test B).

[3] = Test C, male Wistar Royal Hart rats

SMILES	ED50 [1, 3] [mg/kg]	IC50 [2] [µM]	IC50 (HMG-CoA reductase) [µM]	change in 3β-hydroxysterol synthesis ([1]; Test C, male Wistar Royal Hart rats, at 5.9 mg./kg.) [%]	ED50 [1] [mg/kg]
CC[C@H](C)C(=O)O[C@H]1CCC=C2C=C[C@H](C)[C@H](CC[C@@H]3C[C@@H](O)CC(=O)O3)[C@H]21 [Compactin, reference compound]	3.5	0.08	0.94		
C[C@@H]1C=C[C@H](C)[C@H](c2ccc(F)cc2)[C@H]1/C=C/C1CC(O)CC(=O)O1 (stereo partly drawn) [Example 3, (E)-6-[2'-(2"α,5"α-Dimethyl-6"α-(4'"-fluorophenyl)cyclohex-3"-en-1"βS-yl)ethenyl]-4-hydroxy-3,4,5,6-tetrahydro-2H-pyran-2-one]	2.4	1.2	8.13		
C[C@@H]1C=C[C@H](C)[C@H](c2ccc(F)cc2)[C@H]1/C=C/[C@@H]1C[C@@H](O)CC(=O)O1 [Example 3A, (E)-Trans-6S-[2'-(2"α,5"α-Dimethyl-6"α-(4'"-fluorophenyl)cyclohex-3"-en-1"βS-yl)ethenyl]-4R-hydroxy-3,4,5,6-tetrahydro-2H-pyran-2-one]			3.23		
C[C@@H]1C=C[C@H](C)[C@H](c2ccc(F)cc2)[C@H]1/C=C/C(O)CC(O)CC(=O)O (stereo partly drawn) [Example 5, Sodium (E)-3,5-dihydroxy-7-[2'α,5'α-dimethyl-6'α-(4"-fluorophenyl)cyclohex-3'-en-1'βS-yl]hept-6-enoate]	2.07	0.6	1.19		
C[C@@H]1C=C[C@H](C)[C@H](c2ccc(F)cc2)[C@H]1/C=C/[C@@H](O)C[C@@H](O)CC(=O)O [Example 5A, Sodium (E)-3R,5S-dihydroxy-7-[2'α,5'α-dimethyl-6'α-(4"-fluorophenyl)cyclohex-3'-en-1'βS-yl]hept-6-enoate]			0.54		
CCOC(=O)CC(O)CC(O)/C=C/[C@@H]1[C@@H](c2cccc3ccccc23)[C@@H](C)C=C[C@H]1C (stereo partly drawn) [Example 6, Ethyl (E)-3,5-dihydroxy-7-(2'α,5'α-dimethyl-6'α-naphth-1"-ylcyclohex-3'-en-1'βS-yl)hept-6-enoate]			5.57		
O=C1CC(O)CC(/C=C/[C@H]2CC=CC[C@@H]2c2ccccc2)O1 (stereo partly drawn) [Example 67B]			1370		
O=C1CC(O)CC(/C=C/[C@@H]2CC=CC[C@H]2c2ccc(Cl)cc2)O1 (stereo partly drawn) [Example 73]			450		
C[C@@H]1C=C[C@H](C)[C@@H](/C=C/C2CC(O)CC(=O)O2)[C@@H]1c1ccc(F)cc1 (stereo partly drawn) [Example 74]	20	5.8	116		
C[C@@H]1C=C[C@H](C)[C@H](c2ccccc2)[C@H]1/C=C/C1CC(O)CC(=O)O1 (stereo partly drawn) [Example 79]		4.8	29	-62	
C[C@@H]1CC[C@H](C)[C@H](c2ccc(F)cc2)[C@H]1CCC(O)CC(O)CC(=O)O (stereo partly drawn) [Example 85]			7.2		
CCOC(=O)CC(O)CC(O)/C=C/[C@@H]1[C@@H](c2ccc(F)cc2)[C@H](C)CC[C@H]1C(C)C (stereo partly drawn) [Example 86]		5.4	141		
CC[C@H](C)C(=O)O[C@H]1C[C@@H](C)C=C2C=C[C@H](C)[C@H](CC[C@@H]3C[C@@H](O)CC(=O)O3)[C@H]21 [Mevinolin, reference compound]					0.41

Source: patent publication US4876280A, “Arylcyclohexane and arylcyclohexene analogs of mevalonolactone derivatives and their use” (Sandoz Pharm. Corp., priority 1988, dated 1989)
